Experimental findings from patent publication US11071731B2, “Allosteric modulators of the mu opioid receptor” (Chiromics, LLC, priority 2017, dated 2021) are described below.

Data set [1] concerns Sprague-Dawley rats. The data set is described as follows: Respiratory depression: blood oxygen saturation by pulse oximetry. Conditions: subcutaneous; morphine 10 mg/kg, compound 9 15, 30, 60 mg/kg; 90 minutes. The format is in vivo. As to the method:
Respiratory depression is a significant side effect associated with opioid treatment of acute and chronic pain. Drug-related overdose deaths are often a function of the respiratory depression which occurs with opioid use. Efforts to generate analgesics that dissociate pain relief from side effects are critical to the advancement of public health. […] […].
Blood oxygen saturation was assessed in awake rats with the MouseOx oximeter system (Starr Life Sciences, Holliston, Mass.). Up to 5 samples were measured every 5 minutes for 15 minutes prior to dosing and 90 minutes after dosing. Each animal was habituated to the device over several days prior to the study.

Data set [2] has as its system Sprague-Dawley rats. As to the kind of experiment: Gastrointestinal transit of charcoal bolus and stomach contents. Particulars: morphine 10 mg/kg, compound 9 15, 30, 60 mg/kg.
For data set [3], the target named is T1, mu opioid receptor subtype OPRM1 (Homo sapiens, UniProt P35372).
The target in a further data set is OPRM1 receptor (Homo sapiens, UniProt P35372).
Data set [4] addresses T2, mu opioid receptor (MOR) (Homo sapiens, UniProt P35372). The data set is described as follows: PathHunter β-arrestin recruitment assay, PAM mode with EC20 endomorphin-1. It is filed as cell-based. Conditions: for allosteric activity for β-arrestin recruitment: EC20 endomorphin-1 concentration of 4.5 nM. The procedure, abridged:
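Enzyme fragment complementation read-out: β-gal ED fragment fused to receptor, EA fused to β-arrestin, recruitment restoring β-gal activity detected by chemiluminescence. EC50 and percent maximal response derived for each compound.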
Background: Arrestin recruitment assays detect the binding of arrestin to an activated receptor.

The target in data set [5] is T2, mu opioid receptor (MOR). As to the kind of experiment: Hit Hunter cAMP signaling assay (adenylyl cyclase inhibition), PAM mode with EC20 endomorphin-1. It is filed as cell-based. Conditions: for allosteric activity for cAMP signaling: EC20 endomorphin-1 concentration of 0.45 nM; for Max. Response: cAMP.
For data set [6], the target named is T1, mu opioid receptor subtype OPRM1. The data set is described as follows: β-arrestin recruitment assay, antagonist format. The format is cell-based. Particulars: Table 18. The method, then:
Beta-Arrestin Pathway: The PathHunter β-arrestin assay monitors the activation of a GPCR in a homogenous, non-imaging assay format using a technology developed by DiscoveRx called Enzyme Fragment Complementation (EFC) with beta-galactosidase (β-Gal) as the functional reporter. […] EA is fused to β-Arrestin and ED is fused to the GPCR of interest. When the GPCR is activated and β-arrestin is recruited to the receptor, ED and EA complementation occurs, restoring β-gal activity, which is measured using chemiluminescent PathHunter Detection Reagents.
Similar results were obtained when agonist and antagonist activity were assayed using cAMP signaling as the readout.

In data set [7] the target is T3, MOR (Homo sapiens, UniProt P35372). The data set is described as follows: cell-based. Particulars: EC20 morphine agonism of MOR; for EC50: RC50, β-arrestin; for Max. Response: β-arrestin.
The target in data set [8] is T3, MOR. As to the kind of experiment: cell-based. Conditions: EC20 morphine agonism of MOR; for EC50: RC50, cAMP; for Max. Response: cAMP.
Data set [9] deals with T3, MOR. As to the kind of experiment: cell-based. Particulars: EC20 Oxycodone agonism of MOR; for EC50: RC50, β-arrestin; for Max. Response: β-arrestin.
Data set [10] has as its target T3, MOR. The data set is described as follows: cell-based. Particulars: EC20 Oxycodone agonism of MOR; for EC50: RC50, cAMP; for Max. Response: cAMP.
Data set [11] has as its target T3, MOR. It is filed as cell-based. Conditions: β-arrestin; EC20 EM2 agonism of MOR.
In data set [12] the target is T3, MOR. It is filed as cell-based. Particulars: cAMP; EC20 EM2 agonism of MOR.
Data set [13] deals with T3, MOR. The format is cell-based.
Data set [14] deals with T3, MOR. It is filed as cell-based. The source holds these as a separate data set.
The target of data set [15] is T1, mu opioid receptor subtype OPRM1. As to the kind of experiment: cell-based.
The target in data set [16] is T4, PK-tagged delta opioid receptors (U20S-DOR1) (Homo sapiens, UniProt P41143).
T4 construct: host or cells: U20S Path Hunter cells
As to the kind of experiment: β-arrestin recruitment in U20S PathHunter cells, PAM mode with EC20 DADLE. The format is cell-based. Conditions: EC20 (0.8 nM) DADLE; concentrations up to 25 μM.

Data set [17] addresses T5, PK-tagged kappa opioid receptors (U20S-KOR1) (Homo sapiens, UniProt P41145).
T5 construct: host or cells: U20S Path Hunter cells
The data set is described as follows: β-arrestin recruitment in U20S PathHunter cells, PAM mode with EC20 Dynorphin A. Particulars: EC20 (0.8 nM) Dynorphin A; concentrations up to 25 μM. The format is cell-based.

Where [18] appears, read: maximal response for β-arrestin recruitment.
The mark [19] stands for this setting: β-arrestin recruitment, read-out: β-arr. EC50.
[20] abbreviates: β-arrestin, EC20 EM-1 agonism of MOR.
Setting [21] is: β-arrestin, EC20 EM-1 agonism of MOR, read-out: RC50 (the source's name).
Where [22] appears, read: RC50, cAMP, EC20 EM-1 agonism of MOR.
[23] abbreviates: cAMP EC50, adenylyl cyclase inhibition.
Setting [24] is: maximal response for adenylyl cyclase inhibition.

Like-named read-outs stand apart in the source and are kept apart here.

Usually IC50 stands for the concentration that gives 50% inhibition. Read a high IC50 as weaker potency.

T2 sequence (P35372 whole entry, the tested form may be a part): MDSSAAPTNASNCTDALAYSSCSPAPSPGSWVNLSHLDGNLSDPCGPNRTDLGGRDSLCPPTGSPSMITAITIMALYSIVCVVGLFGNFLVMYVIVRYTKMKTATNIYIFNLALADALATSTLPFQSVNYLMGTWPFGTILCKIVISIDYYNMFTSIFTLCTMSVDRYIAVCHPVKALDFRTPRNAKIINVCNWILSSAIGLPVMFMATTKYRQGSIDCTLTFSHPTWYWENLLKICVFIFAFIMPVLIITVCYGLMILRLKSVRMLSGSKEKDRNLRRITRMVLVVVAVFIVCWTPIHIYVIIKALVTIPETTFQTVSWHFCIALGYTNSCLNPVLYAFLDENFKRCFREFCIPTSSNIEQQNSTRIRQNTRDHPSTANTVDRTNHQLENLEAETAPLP
T1 sequence (P35372 whole entry): as the sequence (P35372 whole entry, the tested form may be a part) above
T3 sequence (P35372 whole entry): as the sequence (P35372 whole entry, the tested form may be a part) above
OPRM1 receptor, sequence (P35372 whole entry): as the sequence (P35372 whole entry, the tested form may be a part) above

With `CN1CC[C@]23c4c5ccc(O)c4O[C@H]2[C@@H](O)C=C[C@H]3[C@H]1C5` [morphine, reference compound], in the data set on Sprague-Dawley rats [1], the “oxygen saturation / respiratory depression” value is reported as “significant reduction in oxygen saturation”. Moreover, the “stomach weight” value in the data set with Sprague-Dawley rats [2] (20 minutes after charcoal) is listed as “increased”. The “GI transit” value in the data set with Sprague-Dawley rats [2] (subcutaneous 1 hour before charcoal) is “significantly decreased”.
With `COc1ccc2c3c1O[C@H]1C(=O)CC[C@@]4(O)[C@@H](C2)N(C)CC[C@]314` [oxycodone], the “% Max. Resp., β-arrestin” value in data set [3] is 102.03%. Moreover, the “% Max. Resp., cAMP” value on OPRM1 receptor was found to be 100.62%.
With `COc1ccc(C2CCCCN2S(=O)(=O)c2ccc(Cl)cc2)cc1Br` (single isomer, unassigned) [compound 6], the “allosteric activity for β-arrestin recruitment” value at mu opioid receptor (MOR) [4] was “moderate positive allosteric effect”. Also, on mu opioid receptor (MOR) [4] (setting [18]), the “β-arr Max. Resp.” value is given as “F (F represents a maximal response of > 60%)”. The EC50 at mu opioid receptor (MOR) [4] (setting [19]) is 700 to 2100 nM; on mu opioid receptor (MOR) [4] (setting [21]) it was 2520 nM; at mu opioid receptor (MOR) [5] (setting [22]) it was 500 nM; at mu opioid receptor (MOR) [5] (setting [23]) it was < 700 nM; at MOR [7] it was 8.25 µM; on MOR [8] it was 2960 nM. Further, the EC50 on MOR [9] was 4.83 µM; at MOR [10] it was 320 nM; in [15], > 25 µM. The “Max. Response” value at mu opioid receptor (MOR) [4] (setting [20]) stood at 173; at mu opioid receptor (MOR) [5] (EC20 EM-1 agonism of MOR), 93; on MOR [7] it was 421; at MOR [8], 93; on MOR [9] it was 384; at MOR [10], 90. In addition, the “Max. Response” value at MOR [11] was determined as 117; at MOR [12], 91. At mu opioid receptor (MOR) [5], the “allosteric activity for cAMP signaling” value is reported as “moderate positive allosteric effect”. For the same molecule, the “cAMP Max. Resp.” value at mu opioid receptor (MOR) [5] (setting [24]) was “F (F represents a maximal response of > 60%)”. In addition, the half-maximal inhibitory concentration (IC50) in [6] is > 25 µM. In addition, the “factor of increase of the affinity (α) of oxycodone” value on MOR [13] (β-arrestin) is 2; at MOR [14] (cAMP), 4. Further, the “factor of increase of the efficacy (β) of oxycodone” value at MOR [13] (β-arrestin) came to 80; on MOR [14] (cAMP), 4. Also, the “shift in the potency of oxycodone” value at MOR [13] (β-arrestin recruitment) was “concentration-dependent and saturable leftward shifts”; at MOR [14] (adenylyl cyclase inhibition), “concentration-dependent and saturable leftward shifts”. Moreover, the “effective potency for PAM effect” value at MOR [14] (cAMP signal, oxycodone) came to 234 nM.
Take `O=S(=O)(c1ccc(Cl)cc1)N1CCCCC1c1ccc(F)c(Br)c1` (racemic) [compound 60]: the “β-arr Max. Resp.” value at mu opioid receptor (MOR) [4] (setting [18]) is given as “F (F represents a maximal response of > 60%)”. Moreover, the “β-arrestin Max Response” value on mu opioid receptor (MOR) [4] (β-arrestin recruitment, activity switching by MOR PAMs) was “F (F represents a maximal response of >60%)”. Besides, the EC50 on mu opioid receptor (MOR) [4] (β-arrestin recruitment, activity switching by MOR PAMs, read-out: β-arrestin EC50) was > 2100 nM; on mu opioid receptor (MOR) [4] (setting [19]), < 700 nM; at mu opioid receptor (MOR) [5] (adenylyl cyclase inhibition, activity switching by MOR PAMs, read-out: cAMP EC50), > 2100 nM; at mu opioid receptor (MOR) [5] (adenylyl cyclase inhibition, read-out: cAMP EC50), < 700 nM. For the same molecule, the “cAMP Max Resp.” value at mu opioid receptor (MOR) [5] (adenylyl cyclase inhibition, activity switching by MOR PAMs) is recorded as “D (D represents a maximal response of < 40%)”. Moreover, the “cAMP Max. Resp.” value at mu opioid receptor (MOR) [5] (setting [24]) was “E (E represents a maximal response of 40-60%)”. Moreover, in [16], the “positive allosteric effect on DOR signaling” value was “no significant positive allosteric effect”. Further, the “positive allosteric effect on KOR signaling” value in data set [17] is recorded as “no significant positive allosteric effect”.
In the case of `Fc1ccc(Cl)cc1CN1CCCCC1c1cccc(C(F)(F)F)n1` (stereo not drawn) [compound 2], on mu opioid receptor (MOR) [4], the “allosteric activity for β-arrestin recruitment” value was “high positive allosteric activity”. The “signaling preference β-arrestin vs cAMP” value at mu opioid receptor (MOR) [4] (comparison of β-arrestin and cAMP assays) was “roughly equivalent signaling for β-arrestin and cAMP”. Moreover, at mu opioid receptor (MOR) [4] (setting [18]), the “β-arr Max. Resp.” value is recorded as “F (F represents a maximal response of > 60%)”. Further, on mu opioid receptor (MOR) [4] (maximal response for β-arrestin recruitment, Table 3), the “β-arr. Max Resp.” value came to 72. The EC50 at mu opioid receptor (MOR) [4] (β-arrestin recruitment, Table 3, read-out: β-arr. EC50) was 155 nM; on mu opioid receptor (MOR) [4] (setting [19]), < 700 nM; at mu opioid receptor (MOR) [4] (setting [21]) it was 360 nM; at mu opioid receptor (MOR) [5] (setting [22]), 570 nM; at mu opioid receptor (MOR) [5] (cAMP EC50 (nM), adenylyl cyclase inhibition, Table 3) it was 170 nM; at mu opioid receptor (MOR) [5] (setting [23]), < 700 nM. The EC50 on MOR [7] is 9.59 µM; on MOR [8], > 25000 nM; at MOR [9], 13.6 µM; on MOR [10], > 25000 nM. In addition, the “Max. Response” value on mu opioid receptor (MOR) [4] (setting [20]) came to 143; at mu opioid receptor (MOR) [5] (EC20 EM-1 agonism of MOR), 81; at MOR [7], 156; at MOR [8] it was 26; at MOR [9] it was 126; at MOR [10], 5. Also, the “Max. Response” value on MOR [11] was determined as 97; at MOR [12], 83. The “allosteric activity for cAMP signaling” value on mu opioid receptor (MOR) [5] is “high positive allosteric activity”. Also, on mu opioid receptor (MOR) [5] (setting [24]), the “cAMP Max. Resp.” value is “F (F represents a maximal response of > 60%)”. Besides, the “cAMP Max Resp.” value at mu opioid receptor (MOR) [5] (maximal response for adenylyl cyclase inhibition, Table 3) stood at 85.
